{"source": "patent US20240197604A1", "about": "“COMPOUNDS WITH COOLING SENSATION PROPERTIES” (Givaudan SA, priority 2021, published 2024)", "key": {"[1]": {"assay": "Sensory evaluation in model dentifrice by a panel of trained flavourists", "type": "in vivo, human", "conditions": "10 ppm in unflavored model dentifrice, brushing with 1 g for 60 seconds, no rinsing", "procedure": "The oxalate of 2-(methylthio)-1-(2-(5-(p-tolyl)imidazol-2-yl)piperidin-1-yl)propan-1-one (prepared according to Example 1d) was dissolved at a concentration of 1 wt-% in propylene glycol. This solution was then dispersed in an appropriate quantity to obtain the desired final concentration of 10 ppm (parts per million) of the test compound into a model, unflavored dentifrice, the formula of which is given below (ingredients obtained from the suppliers respectively indicated in parenthesis).\nA panel of trained flavourists evaluated the dentifrice containing the oxalate, by brushing their teeth with 1 g of the dentifrice using a toothbrush for 60 seconds, followed by spitting, without rinsing the mouth afterwards for the duration of the evaluation. The flavourists evaluated and recorded the cooling performance as well as other sensorial and organoleptic attributes at different time-points over a period of 90 minutes. The following tasting notes were recorded: Good coolant. Clean, with a pleasant, mild tingling effect. Active in all areas of the mouth."}, "hTRPM8": {"target": "T1, hTRPM8 (Homo sapiens, UniProt Q7Z2W7)", "T1 construct": "expressed in transfected cells", "T1 sequence (Q7Z2W7 whole entry)": "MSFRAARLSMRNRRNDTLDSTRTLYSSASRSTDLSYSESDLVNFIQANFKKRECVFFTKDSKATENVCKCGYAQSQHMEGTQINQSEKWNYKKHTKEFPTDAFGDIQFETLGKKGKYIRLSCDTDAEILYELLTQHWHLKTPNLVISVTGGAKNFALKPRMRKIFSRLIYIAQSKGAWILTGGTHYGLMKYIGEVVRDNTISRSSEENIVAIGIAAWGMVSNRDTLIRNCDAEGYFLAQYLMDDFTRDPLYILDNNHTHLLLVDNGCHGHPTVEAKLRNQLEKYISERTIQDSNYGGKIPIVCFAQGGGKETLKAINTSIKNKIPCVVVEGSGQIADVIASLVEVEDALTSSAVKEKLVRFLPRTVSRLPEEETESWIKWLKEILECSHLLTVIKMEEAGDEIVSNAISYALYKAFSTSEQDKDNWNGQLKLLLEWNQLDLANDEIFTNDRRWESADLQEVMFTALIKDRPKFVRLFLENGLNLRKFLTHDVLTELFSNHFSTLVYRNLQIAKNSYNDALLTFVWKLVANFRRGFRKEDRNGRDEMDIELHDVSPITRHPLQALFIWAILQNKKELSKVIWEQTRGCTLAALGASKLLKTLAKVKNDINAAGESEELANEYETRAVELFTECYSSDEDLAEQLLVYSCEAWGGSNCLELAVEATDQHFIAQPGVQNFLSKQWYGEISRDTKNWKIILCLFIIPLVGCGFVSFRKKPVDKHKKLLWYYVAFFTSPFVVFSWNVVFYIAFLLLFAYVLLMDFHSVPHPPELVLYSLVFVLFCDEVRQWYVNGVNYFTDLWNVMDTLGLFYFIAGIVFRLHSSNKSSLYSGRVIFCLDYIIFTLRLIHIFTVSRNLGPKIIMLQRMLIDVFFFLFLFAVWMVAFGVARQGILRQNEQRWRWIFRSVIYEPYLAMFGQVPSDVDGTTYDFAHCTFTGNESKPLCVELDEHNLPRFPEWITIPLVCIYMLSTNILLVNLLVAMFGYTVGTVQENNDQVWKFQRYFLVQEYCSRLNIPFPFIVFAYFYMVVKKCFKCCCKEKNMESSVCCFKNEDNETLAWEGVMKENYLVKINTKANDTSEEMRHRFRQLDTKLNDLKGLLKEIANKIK", "assay": "Assay on TRPM8 modulators: calcium imaging (Fluo-4, Flexstation 3) in HEK293 cell line stably expressing hTRPM8", "type": "cell-based", "conditions": "HEK293 cells stably expressing hTRPM8; Fluo-4 calcium imaging; sigmoidal dose-response fit; read-out: EC50 value (TRPM8 agonist, calcium influx)", "procedure": "A HEK293 cell line stably expressing hTRPM8 was generated according to Klein et al., (Chem. Senses 36: 649-658, 2011) and receptor activation was monitored by calcium imaging in a Flexstation. For Ca-imaging assays of TRPM8 channel activation, cells were seeded on day 0 at a density of 12000 cells per well in Dulbecco's modified Eagle medium (DMEM) containing 9% foetal bovine serum in black, clear bottom 96-well plates that had been coated with 0.001% polyethyleneimine (molecular weight=60 000, Acros Organics). On day 2, agonists were evaluated via calcium imaging using Fluo-4. Briefly, growth medium was discarded, and the cells were incubated in the dark for 1 h at 37° C. in 50 μL loading buffer consisting of 2.7 μM Fluo-4 AM (Invitrogen) and […] probenecid (Sigma-Aldrich) in DMEM (without serum). […] The cells were then washed five times with 100 μL assay buffer and then calcium influx to serial dilutions of 2-(1-(2-(methylthio)propanoyl)piperidin-2-yl)-5-(p-tolyl)-1H-imidazolium carboxyformate was measured in a Flexstation 3 (Molecular Devices). […] Fluorescence was continuously monitored for 15 seconds prior to ligand addition and for 105 seconds after ligand addition, for a total of 120 seconds. Maximal receptor activation in relation to solvent control and relative to 31.6 μM menthol is determined. […]"}}, "data": [{"compound": "CSC(C)C(=O)N1CCCCC1c1ncc(-c2ccc(C)cc2)[nH]1.O=C(O)C(=O)O", "note": "(stereo not shown) [Example 1d, 2-(1-(2-(methylthio)propanoyl)piperidin-2-yl)-5-(p-tolyl)-1H-imidazolium carboxyformate]", "values": [{"measurement": "onset of cooling effect (tasting notes)", "setting": "[1]", "result": "Fast acting (upfront cooling) with effect perceived already during brushing"}, {"measurement": "cooling performance (tasting notes)", "setting": "[1]; evaluated over 90 minutes", "result": "Good coolant"}, {"measurement": "longevity of cooling effect (tasting notes)", "setting": "[1]; evaluated over 90 minutes", "result": "Strong cooling peak with long-lasting effect up to one hour"}, {"measurement": "EC50", "setting": "hTRPM8", "result": "< 10", "unit": "nM"}]}]}
